Assay results: patent publication US20100267672A1, “NOVEL COMPOUNDS OF REVERSE-TURN MIMETICS, METHOD FOR MANUFACTURING THE SAME AND USE THEREOF” (Choongwae Pharma Corporation, priority 2009, published 2010)

How the values were obtained:
[1] = tested on: human AML cell line, MV4-11; experiment: Anticancer activity in acute myeloid leukemia (AML) animal model; assay type: in vivo, Balb/C nude mice; conditions: intravenously once a day, five times per week for two weeks, MV4-11 implanted nude mice, Day 12 vs Day 1; for inhibition in vivo at 25 mg/kg: Mus musculus, iv, 288 h, read-out: Tumor growth Inhibition Rate
Protocol: Test materials were prepared in the form of prodrugs to increase the solubility of compounds of interest. A phosphate functional group which may be either a monosodium or disodium form was introduced as a prodrug substituent.
The human AML cell line, MV4-11, was purchased (ATCC, U.S.A.) and cultured at 37° C. under a 5% CO2 condition in Iscove's Modified Dulbecco's Medium (GIBCO, cat# 21056) supplemented with 10% fetal bovine serum (GIBCO, cat# 25030-081). Female Balb/C nude mice (OrientBio, Sungnam-city, Korea), 5-6 weeks old, were acclimated to the breeding room. Using a sterilized syringe, a mixture of 1:1 of MV4-11 cells: matrigel (v/v) was implanted in an amount of 5×10^6/mouse beneath the axilla of each of the mice. When tumor was formed 2 weeks after the implantation, the mice were divided into five (5) groups in such a manner that a minimum deviation with regard to tumor size and body weight was obtained among the groups. The test materials were dissolved in physiological saline and intravenously injected at a dose of 10 ml/kg once a day and five times per week for two weeks (administration days of test materials, D1˜D5, D8˜D12). For a control, only physiological saline was used. The tumor size was determined as calculated by the following equation: Long Axis×Short Axis×Short Axis/2. The Long and Short Axes of the tumor were measured in length using a digital caliper (Mitsutoyo, Japan). The anticancer activity of the test materials was numerated according to the following equation.
Tumor growth Inhibition Rate A (%)=100×[1−(b−a)/(Ref b−Ref a)] […]
a=mean tumor size of drug-administered group on Day 1 b=mean tumor size of drug-administered group on Day 12
Ref a=mean tumor size of the control on Day 1
Ref b=mean tumor size of the control on Day 12
When the mean tumor size of the drug-administered group on Day 12 was smaller than that of just before the administration of the test materials, it is indicated as Regression (>100%).

[2] = molecular target: T1, hERG (Homo sapiens, UniProt Q12809); experiment: In vitro cardiotoxicity assay: inhibitory activity against hERG (whole-cell patch clamp); assay type: cell-based; conditions: hERG-transfected HEK293 cells, tail current of outward hERG K+ currents; read-out: Cardiotoxicity (hERG Inhibiting Activity Assay, IC50)
T1 construct: expressed in transfected cells; host or cells: HEK293
Protocol: HEK293 was transfected with hERG (human Ether-à-go-go Related Gene) cDNA for 48 hrs using Lipofectamine 2000 (Invitrogen, USA). The transfected HEK293 cells were cultured in Modified Dulbecco's Medium (MEM, Gibco, 1 L) supplemented with 10% FBS, sodium pyruvate (10 ml), penicillin/streptomycin (10 ml) and Zeocin (100 μg/ml, Invitrogen) at 37° C. under 5% CO2. After being detached from incubation vessels by trypsinization, the HEK293 cells were placed in a chamber for patch clamp recording. A whole-cell patch clamp method was used to record hERG K+ currents in HEK293 cells using the following intra/extracellular solutions.
The membrane potential was depolarized from −80 mV to +20 mV for 1,000 ms in a whole-cell patch clamp mode and then repolarized to −40 mV for 1,000 ms, during which the tail current of outward hERG K+ currents was recorded. In this regard, the concentrations of the compounds that are required for 50% inhibition of the current were represented as IC50.
The risk of cardiotoxicity has been raised in many drugs. Some of them were withdrawn from the market because they caused a sudden death due to the cardiotoxicity thereof. The cardiotoxicity of drugs is associated with the extension of QT intervals on electrocardiograms. Particularly, most of the drugs extending QT intervals are known to inhibit IKr channels (Bernard Fermini and Anthony A. Fossa, Nature Reviews Drug Discovery, 2003, 2, 439-447). […] In this example, the risk of cardiotoxicity was evaluated using human hERG channel-expressing mammal cells, which are internationally recognized as a system (ICH guideline, S7B, Step 4, 12, May, 2005). Although pharmaceutical activity of drug should be taken into consideration, a drug is evaluated as having a low cardiotoxicity risk when IC50 thereof is 10 μM or higher. […] Having higher IC50, compound A1 was evaluated to be safer than compound A, and compounds B1, B2 and B3 than compound B.

[3] = pH of monosodium and disodium prodrug forms; assay type: physicochemical; conditions: prodrug form as a composition for I.V. injection
Protocol: (§1) This prodrug was prepared by adding sodium hydroxide to P2, which was synthesized according to Example 9. Both monosodium and disodium forms of the prodrug show a solubility of up to 400 mg/ml. Both forms have advantageous properties as a composition for I.V. injection in that a monosodium form has pH 4.45 and a disodium form has pH of 7.62.
In the graph, the horizontal axis represents the added amounts of sodium hydroxide. In the graph, the first and second points of inflection correspond to the time of production of monosodium and disodium forms, respectively.

[4] = Solubility of monosodium and disodium prodrug forms; assay type: physicochemical; conditions: aqueous medium; prodrug prepared by adding sodium hydroxide to P2
Protocol: The compounds were prepared in the form of prodrugs to improve the solubility thereof. Phosphate may be introduced as a possible prodrug substituent which can exist as in either monosodiumphosphate or disodiumphosphate form.
as §1

T1 sequence (Q12809 whole entry): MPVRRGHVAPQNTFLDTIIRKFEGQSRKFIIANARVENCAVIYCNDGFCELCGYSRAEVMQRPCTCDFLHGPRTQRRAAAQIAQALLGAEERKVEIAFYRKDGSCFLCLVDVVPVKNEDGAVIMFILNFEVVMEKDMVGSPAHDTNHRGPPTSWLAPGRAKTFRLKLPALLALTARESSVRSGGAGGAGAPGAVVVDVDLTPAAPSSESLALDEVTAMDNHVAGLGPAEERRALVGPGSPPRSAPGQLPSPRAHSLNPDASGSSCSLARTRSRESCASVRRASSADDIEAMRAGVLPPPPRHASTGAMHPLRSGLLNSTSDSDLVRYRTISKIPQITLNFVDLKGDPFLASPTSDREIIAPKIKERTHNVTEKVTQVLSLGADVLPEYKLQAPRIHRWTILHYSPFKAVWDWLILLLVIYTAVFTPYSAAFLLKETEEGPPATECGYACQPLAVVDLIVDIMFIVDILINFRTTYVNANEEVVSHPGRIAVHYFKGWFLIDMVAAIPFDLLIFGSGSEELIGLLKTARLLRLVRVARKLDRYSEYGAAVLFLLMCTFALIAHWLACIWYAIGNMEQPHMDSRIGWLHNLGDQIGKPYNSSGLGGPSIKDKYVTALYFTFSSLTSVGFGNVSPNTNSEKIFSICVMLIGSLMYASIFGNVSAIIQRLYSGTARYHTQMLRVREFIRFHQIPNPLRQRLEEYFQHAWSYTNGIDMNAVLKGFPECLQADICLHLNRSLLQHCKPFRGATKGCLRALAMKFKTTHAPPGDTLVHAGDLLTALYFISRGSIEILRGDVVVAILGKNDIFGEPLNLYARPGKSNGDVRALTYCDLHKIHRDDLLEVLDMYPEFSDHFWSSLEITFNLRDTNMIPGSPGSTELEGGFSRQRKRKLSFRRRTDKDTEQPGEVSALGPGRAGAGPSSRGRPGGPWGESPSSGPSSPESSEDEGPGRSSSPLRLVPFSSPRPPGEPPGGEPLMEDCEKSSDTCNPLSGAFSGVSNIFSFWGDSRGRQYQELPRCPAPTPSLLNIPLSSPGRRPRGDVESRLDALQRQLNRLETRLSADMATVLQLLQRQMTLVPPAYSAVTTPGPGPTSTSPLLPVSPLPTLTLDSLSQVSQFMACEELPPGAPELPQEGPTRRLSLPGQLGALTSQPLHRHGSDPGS

`C=CCN1CC(=O)N2[C@@H](Cc3ccc(OP(=O)(O)O)cc3)C(=O)N(Cc3cccc4c(C(=O)C5CC5)c[nH]c34)C[C@@H]2N1C(=O)NCc1ccccc1` [Compound C] showed an inhibition in vivo at 25 mg/kg ([1]; dose 25 mg/kg) of 25%.
For `C=CCN1CC(=O)N2[C@@H](Cc3ccc(OP(=O)(O)O)cc3)C(=O)N(Cc3cccc4c(C(=O)CC(C)(C)C)cn(CCCCCC)c34)C[C@@H]2N1C(=O)NCc1ccccc1` [Compound B3], the IC50 [2] was 20 µM and the inhibition in vivo at 25 mg/kg ([1]; dose 25 mg/kg) was 80%.
Work on `C=CCN1CC(=O)N2[C@@H](Cc3ccc(OP(=O)(O)O)cc3)C(=O)N(Cc3cccc4c(C(=O)C5CC5)cn(CC)c34)C[C@@H]2N1C(=O)NCc1ccccc1` [Compound C2] yielded an inhibition in vivo at 25 mg/kg ([1]; dose 25 mg/kg) greater than 100%.
Work on `C=CCN1CC(=O)N2[C@@H](Cc3ccc(OP(=O)(O)O)cc3)C(=O)N(Cc3cccc4c(C(=O)CC(C)(C)C)cn(C)c34)C[C@@H]2N1C(=O)NCc1ccccc1` [Compound B2] yielded an IC50 [2] of 25 µM and an inhibition in vivo at 25 mg/kg ([1]; dose 25 mg/kg) greater than 100%.
For `C=CCN1CC(=O)N2[C@@H](Cc3ccc(OP(=O)(O)O)cc3)C(=O)N(Cc3cccc4c(C(=O)CC)cn(C)c34)C[C@@H]2N1C(=O)NCc1ccccc1` [Compound A1], the IC50 [2] was 80 µM and the inhibition in vivo at 25 mg/kg ([1]; dose 25 mg/kg) was greater than 100%.
Work on `C=CCN1CC(=O)N2[C@@H](Cc3ccc(OP(=O)(O)O)cc3)C(=O)N(Cc3cccc4c(C(C)=O)cn(CCC)c34)C[C@@H]2N1C(=O)NCc1ccccc1` [Compound A3] yielded an inhibition in vivo at 25 mg/kg ([1]; dose 25 mg/kg) greater than 100%.
`C=CCN1CC(=O)N2[C@@H](Cc3ccc(OP(=O)([O-])O)cc3)C(=O)N(Cc3cccc4c(C(C)=O)cn(C)c34)C[C@@H]2N1C(=O)NCc1ccccc1.[Na+]` [monosodium form, Sodium 4-(((6S,9AS)-1-(benzylcarbamoyl)-8-((3-acetyl-1-methyl-1H-indol-7-yl)methyl)-2-allyl-octahydro-4,7-dioxo-1H-pyrazino[2,1-C][1,2,4]triazin-6-yl)methyl)phenyl hydrogenphosphate] gave a pH [3] of 4.45 and a solubility [4] of no more than 400 mg/mL.
`C=CCN1CC(=O)N2[C@@H](Cc3ccc(OP(=O)(O)O)cc3)C(=O)N(Cc3cccc4c(C(=O)CC(C)(C)C)cn(CCC)c34)C[C@@H]2N1C(=O)NCc1ccccc1` [Compound B1] gave an IC50 [2] of 18 µM and an inhibition in vivo at 25 mg/kg ([1]; dose 25 mg/kg) greater than 100%.
Work on `C=CCN1CC(=O)N2[C@@H](Cc3ccc(OP(=O)(O)O)cc3)C(=O)N(Cc3cccc4c(C(C)=O)c[nH]c34)C[C@@H]2N1C(=O)NCc1ccccc1` [Compound A] yielded an IC50 [2] of 14 µM and an inhibition in vivo at 25 mg/kg ([1]; dose 25 mg/kg) of 61%.
With `C=CCN1CC(=O)N2[C@@H](Cc3ccc(OP(=O)(O)O)cc3)C(=O)N(Cc3cccc4c(C(=O)C5CC5)cn(CCCC)c34)C[C@@H]2N1C(=O)NCc1ccccc1` [Compound C3] the inhibition in vivo at 25 mg/kg ([1]; dose 25 mg/kg) was 70%.
For `C=CCN1CC(=O)N2[C@@H](Cc3ccc(OP(=O)(O)O)cc3)C(=O)N(Cc3cccc4c(C(=O)C5CC5)cn(C)c34)C[C@@H]2N1C(=O)NCc1ccccc1` [Compound C1], the inhibition in vivo at 25 mg/kg ([1]; dose 25 mg/kg) was greater than 100%.
In the case of `C=CCN1CC(=O)N2[C@@H](Cc3ccc(OP(=O)(O)O)cc3)C(=O)N(Cc3cccc4c(C(=O)CC(C)(C)C)c[nH]c34)C[C@@H]2N1C(=O)NCc1ccccc1` [Compound B], the IC50 [2] is reported as 1.6 µM and the inhibition in vivo at 25 mg/kg ([1]; dose 25 mg/kg) is reported as 49%.
For `Nc1ccn([C@@H]2O[C@H](CO)[C@@H](O)[C@@H]2O)c(=O)n1` [Ara-C, reference compound], the “Tumor growth Inhibition Rate” value ([1]; dose 25 mg/kg, 25 mg/kg) was 66% and the “Tumor growth Inhibition Rate” value ([1]; dose 50 mg/kg) was 77%.
With `C=CCN1CC(=O)N2[C@@H](Cc3ccc(OP(=O)([O-])[O-])cc3)C(=O)N(Cc3cccc4c(C(C)=O)cn(C)c34)C[C@@H]2N1C(=O)NCc1ccccc1.[Na+].[Na+]` [disodium form] the pH [3] was 7.62 and the solubility [4] was no more than 400 mg/mL.
`C=CCN1CC(=O)N2[C@@H](Cc3ccc(OP(=O)(O)O)cc3)C(=O)N(Cc3cccc4c(C(C)=O)cn(C)c34)C[C@@H]2N1C(=O)NCc1ccccc1` [Compound A2] showed an inhibition in vivo at 25 mg/kg ([1]; dose 25 mg/kg) greater than 100%.
